# Data: patent EP1115421B1, “USE OF GLP-1 OR ANALOGS IN TREATMENT OF STROKE” (ELI LILLY AND COMPANY, priority 1998, dated 2009)
# Where no end group is shown, it is not given here.
# How the values were obtained:
# [1] = test system: NIDDM patients; assay: Infusion during meals in NIDDM patients, blood glucose (Example 2); type: in vivo; details: while infused, three hours during breakfast, lunch and dinner; compared with insulin injection; five NIDDM patients
# [2] = test system: patients having non-insulin dependent diabetes (NIDDM); assay: Overnight subcutaneous infusion in NIDDM patients, blood glucose (Example 1); type: in vivo
substance,measurement,setting,value
"GLP-1(7-36) amide (HAEGTFTSDVSSYLEGQAAKEFIAWLVKGR-NH2; UniProt P01275 98-127, looked up, fragment) [truncated glucagon-like peptide 1, C-terminal amide]",post-prandial glucose excursions,[1],eliminated
same,metabolic control,"[2]; compared with continuous insulin infusion, average blood glucose significantly lower at 23:00, 0:00 and 1:00",better than that achieved by insulin
same,effect on blood glucose,"[2]; subcutaneous infusion 1.2 pmol/kg/hr, ten hours during the night, five NIDDM patients",nearly normalized blood glucose
